Positions of bridges follow the written chain, without caps; N, C: chain ends.
Experiments:
[1] = system: human proximal tubule epithelial cells (HK2); assay: Cisplatin-induced apoptosis in HK-2 cells (Annexin V); format: cell-based; details: THR-123 250 μM, cisplatin 10 μM
Experimental: FIG. 50A-FIG. 50D THR-123 inhibits Cisplatin-induced apoptosis in human proximal tubule epithelial cells (HK2). Immortalized human proximal tubular epithelial-derived HK-2 (Human Kidney-2) cells are passaged on 24-well plates (˜25,000 to 30,000 cells/well). The cells are exposed either K-SFM media alone or K-SFM medium containing THR-123. BMP7 serves as a positive control of experiment. Two hours after incubation, cells are exposed to cisplatin for 60 hours (FIG. 50A-FIG. 50C). FIG. 50D. Cells are exposed to cisplatin for 6 hours and subsequently THR-123 was added into the media. Apoptosis is determined by staining of AnnexinV-FITC Apoptosis detection kit (TACS Annexin V-FITC) (R&D Systems), followed by fluorescence microscopy. Final concentration: THR-123 250 μM, BMP-7 1 μg/ml, cisplatin 10 μm.
HK-2 cells are passaged on 24-well plates (25,000-30,000 cell/well). Once cells attached on the well, cells are exposed either K-SFM media alone or K-SFM medium containing THR-123. BMP7 serves as a positive control of experiment. Two hours after incubation, cells are exposed to cisplatin for 60 hours. Apoptosis is determined by staining of AnnexinV-FITC, followed by fluorescence microscopy. Final concentration: THR-123 250 μM, BMP7 1 μg/ml, cisplatin 10 μM.

[2] = system: cisplatin-induced nephrotoxicity in rats; assay: Cisplatin-induced nephrotoxicity in rats; format: in vivo; details: cisplatin plus THR-123 versus cisplatin alone
Excerpt: FIG. 38 Tumor necrosis factor-a (TNF-a) production via p38 mitogen-activated protein kinase (MAPK) is one of the pivotal mechanisms in the development of AKI induced by a nephrotoxic agent, cisplatin (Ramesh, G and Reeves, W B. Am J Physiol Renal Physiol 289:F166-F174, 2005). Therefore THR-123 was further examined to determine if the compound is capable of inhibiting cisplatin-induced nephrotoxicity in animals. The upper right and left panels in the figure show Kidney sections immunostained for ICAM-1 expression and the lower right and left panels show immunostaining for the presence of macrophages. The kidney sections in the left column were treated with cisplatin alone and the right column panels were treated with cisplatin and THR-123. Arrows in the upper panel indicate ICAM-1 expression which was reduced by THR-123. Arrows in the lower panel indicate infiltration of macrophages as detected by Mac CD-68 staining, which was reduced by THR-123.

[3] = system: mice with nephrotoxic serum nephritis; assay: Nephrotoxic serum nephritis (NTN) in CD1 mice; format: in vivo
Excerpt: FIG. 59A-FIG. 59M AA-123 Reverses Renal Fibrosis in Mice with Nephrotoxic Serum Nephritis. FIG. 59A-FIG. 59D. Representative Masson's trichrome staining picture of kidney sections from untreated control mice (FIG. 59A); 6 weeks NTN (FIG. 59B); 9 weeks post NTN (FIG. 59C); and 9 weeks NTN with THR-123 administered starting at 6 weeks NTN (FIG. 59D), Original magnification ×200. FIG. 59E-FIG. 59G. Morphometric analysis from control mice (0 weeks) (n=5), mice after 1 (n=6), 3 (n=8), and 6 weeks following induction of NTN (n=6), and mice at 9 weeks NTN with THR-123 administered starting 6 weeks NTN (THR-123 (6-9W) (n=6)), assessing percent of glomerulosclerosis score (FIG. 59E), tubular atrophy index (FIG. 59F), and fibrosis index (FIG. 59G). FIG. 59H. Blood Urea Nitrogen measurement for mice 6 weeks NTN (n=3), 9 weeks NTN (n=5), and 9 weeks NTN with THR-123 administered starting at 6 weeks NTN (n=5) FIG. 59I-FIG. 59L. E-cadherin/FSP1 immunolabeling of kidney from control untreated mice (FIG. 59I), 6 weeks NTN (FIG. 59J), 9 weeks NTN (FIG. 59K), and 9 weeks NTN with THR-123 administered starting at 6 weeks NTN (FIG. 59L). Representative results are shown. FIG. 59M. Percent of E-cadherin/FSP1 double positive tubule was assessed by counting the number of double-labeled tubules, 500 tubules per slide, 5 slides per experimental group. Data are expressed as mean±s.e.m. in the graph.
NTN is induced in C57BL6 mice by pre-immunizing with a subcutaneous injection of normal sheep IgG (200 μg) in complete Freund's adjuvant (day 1) followed by intravenous injection of nephrotoxic serum injection (50 μl, from day 5 to day 7). Mice were sacrificed at 1, 3, 6, 9 weeks after induction of NTN. Total RNA was isolated from the kidney by Trizol/Invitrogen PureLink RNA Mini Kit for RNA extraction. Ten nanogram of total RNA was used for generating complementary cDNA using the TaqMan One-Step RT-PCR Master Mix (Applied Biosystems, Foster City, Calif.). Quantitative PCR was performed to analyze the gene expression profile of BMP7, BMP receptors Alk2, Alk-3, Alk6 and BMPR II, and to BMP-binding proteins chordin, criml, fibrillinl, follistatin, KCP, USAG1, gremlin and noggin are analyzed (Table: Primer Sequences (below)) using ABIprism 7000 (Applied Biosystems).
NTN is induced in CD1 mice by the method described above. Six weeks after NTN induction, THR-123 (p.o. 5 mg/Kg/day) are started until 9 weeks. Mice are sacrificed at week 1, week 3, week 6 and week 9.
For the analysis of glomerulosclerosis, 20 glomeruli per each mouse were randomly picked and each glomerulus was evaluated according to the following scale: no sclerosis 0, 0 to ¼ of a glomerular surface area was sclerosed 1, ¼ to ½ was sclerosed 2, ½ to ¾ was sclerosed 3 and more than ¾ was sclerosed or with crescent 4. A glomerulosclerosis score was calculated as an arithmetic mean of these numbers for each mouse. The glomerulosclerosis scores from all mice were arbitrarily divided into 4 groups; that is no disease, mild, moderate and severe. The percentage of mice with these 4 groups was calculated.
For tubular atrophy score, ten 200× visual fields were randomly selected for each slide and tubular atrophy was assessed according to the following scale: no atrophy 0, 0 to ¼ of a visual field was occupied by atrophied tubules 1, ¼ to ½ 2, ½ to ¾ 3 and more than ¾ 4. A tubular atrophy score was then calculated as an arithmetic mean of these numbers per each mouse. The tubular atrophy scores from all mice were arbitrarily divided into 4 groups; that is no disease, mild, moderate and severe. The percentage of mice with these 4 groups was calculated and shown on the graph.
For the analysis of interstitial fibrosis, ten 200× visual fields were also selected randomly for each Masson trichrome stained kidney section and interstitial fibrosis was evaluated according to the following scale: no fibrosis 0, 0 to ¼ of a visual field was affected by interstitial fibrosis 1, ¼ to ½ 2, ½ to ¾ 3 and more than ¾ 4. […]

## (H)-CYFDDSSNVLCKKYRS-(OH) (H-CYFDDSSNVLCKKYRS-OH; disulfide 1-11; SMILES CC(C)C[C@@H]1NC(=O)[C@H](C(C)C)NC(=O)[C@H](CC(N)=O)NC(=O)[C@H](CO)NC(=O)[C@H](CO)NC(=O)[C@H](CC(=O)O)NC(=O)[C@H](CC(=O)O)NC(=O)[C@H](Cc2ccccc2)NC(=O)[C@H](Cc2ccc(O)cc2)NC(=O)[C@@H](N)CSSC[C@@H](C(=O)N[C@@H](CCCCN)C(=O)N[C@@H](CCCCN)C(=O)N[C@@H](Cc2ccc(O)cc2)C(=O)N[C@@H](CCCNC(=N)N)C(=O)N[C@@H](CO)C(=O)O)NC1=O) [SEQ ID NO: 1]
[1]
  cisplatin induced apoptosis: inhibited
[2]
  ICAM-1 expression in kidney sections: reduced
  infiltration of macrophages (Mac CD-68 staining): reduced
[3]; THR-123 p.o. 5 mg/Kg/day from week 6 to 9
  glomerular lesion (sclerosis), tubular atrophy and fibrosis: improved glomerular lesion (sclerosis) and tubular atrophy and fibrosis
[3]; week 6 to 9 treatment
  Mac-1 positive macrophage accumulation: inhibited accumulation of macrophage
  blood urea nitrogen: decreased
  cells exhibiting an EMT program (FSP-1 and E-cadherin positive): significantly decreased the number of cells exhibiting an EMT program
  expression of fibronectin and type I collagen: decreased expression of matrix components such as fibronectin and type I collagen
  phospho-smad1/5 accumulation: increased accumulation of phospho-Smad1/5
